Laboratory results: ChEMBL document CHEMBL6087386, “Radioprotective effectiveness of a novel delta-tocotrienol prodrug on mouse hematopoietic system against 60Co gamma-ray irradiation through inducing granulocyte-colony stimulating factor production” (Eur J Med Chem, 2024)
Activity calls are given as the source filed them. The rule behind the calls is not given here.

Key:
[1] = Cmax in ICR mouse at 100 mg/kg, sc measured upto 24 hrs by LC-MS/MS analysis; type: ADME, organism-based; settings: in vivo
[2] = Cmax in ICR mouse at 100 mg/kg, iv measured upto 24 hrs by LC-MS/MS analysis; type: ADME, organism-based; settings: in vivo
[3] = Tmax in ICR mouse at 100 mg/kg, iv measured upto 24 hrs by LC-MS/MS analysis; type: ADME, organism-based; settings: in vivo
Mus musculus [4] = assay: Radioprotective activity in C57BL/6J mouse assessed as increase in platelets count at 100 mg/kg, sc preincubated with compound for 24 hrs followed by total body irradiation with 6.5 Gy and measured after 30 days; type: functional, organism-based; settings: time 31.0 day
Mus musculus [5] = assay: Radioprotective activity in C57BL/6J mouse assessed as survival rate at 100 mg/kg, sc preincubated with compound for 24 hrs followed by total body irradiation with 8.5 Gy and measured after 20 days by Kaplan-meier plot analysis; type: functional; settings: light or radiation study, 504 h, time 21 day
Mus musculus [6] = assay: Radioprotective activity in C57BL/6J mouse assessed as increase in number of total bone marrow cells at 100 mg/kg, sc preincubated with compound for 24 hrs followed by total body irradiation with 6.5 Gy and measured after 30 days; type: functional, organism-based; settings: time 31.0 day
[7] = Tmax in ICR mouse at 100 mg/kg, sc measured upto 24 hrs by LC-MS/MS analysis; type: ADME, organism-based; settings: in vivo
Mus musculus [8] = assay: Radioprotective activity in C57BL/6J mouse assessed as increase in RBC count at 100 mg/kg, sc preincubated with compound for 24 hrs followed by total body irradiation with 6.5 Gy and measured after 30 days; type: functional, organism-based; settings: time 31.0 day
Mus musculus [9] = assay: Radioprotective activity in C57BL/6J mouse assessed as increase in multipotent progenitor frequency in LSK compartment at 100 mg/kg, sc preincubated with compound for 24 hrs followed by total body irradiation with 6.5 Gy and measured after 30 days; type: functional, organism-based; settings: time 31.0 day
[10] = MRT (0 to t) in ICR mouse at 100 mg/kg, sc measured upto 24 hrs by LC-MS/MS analysis; type: ADME, organism-based; settings: in vivo
Mus musculus [11] = assay: Radioprotective activity in C57BL/6J mouse assessed as increase in long term hematopoietic stem cell frequency in LSK compartment at 100 mg/kg, sc preincubated with compound for 24 hrs followed by total body irradiation with 6.5 Gy and measured after 30 days; type: functional, organism-based; settings: time 31.0 day
Mus musculus [12] = assay: Radioprotective activity in C57BL/6J mouse assessed as increase in spleen coefficient at 100 mg/kg, sc preincubated with compound for 24 hrs followed by total body irradiation with 6.5 Gy and measured after 10 days; type: functional, organism-based; settings: time 11.0 day
Mus musculus [13] = assay: Radioprotective activity in C57BL/6J mouse assessed as increase in neutrophils at 100 mg/kg, sc preincubated with compound for 24 hrs followed by total body irradiation with 6.5 Gy and measured after 30 days; type: functional, organism-based; settings: time 31.0 day
[14] = Bioavailability in ICR mouse at 100 mg/kg, sc measured upto 24 hrs by LC-MS/MS analysis; type: ADME, organism-based; settings: in vivo
Mus musculus [15] = assay: Induction of G-CSF production in C57BL/6J mouse model at 100 mg/kg, sc measured for 24 hrs by ELISA analysis; type: functional, organism-based
[16] = Volume of distribution at steady state in ICR mouse at 100 mg/kg, iv measured upto 24 hrs by LC-MS/MS analysis; type: ADME, organism-based; settings: ICR, in vivo, read-out: Vdss
Mus musculus [17] = assay: Radioprotective activity in C57BL/6J mouse assessed as increase in number of LSK cells at 100 mg/kg, sc preincubated with compound for 24 hrs followed by total body irradiation with 6.5 Gy and measured after 30 days; type: functional, organism-based; settings: time 31.0 day
Mus musculus [18] = assay: Radioprotective activity in C57BL/6J mouse assessed as increase in platelet count at 100 mg/kg, sc preincubated with compound for 24 hrs followed by total body irradiation with 6.5 Gy and measured on day 10; type: functional, organism-based; settings: time 11.0 day
Mus musculus [19] = assay: Radioprotective activity in C57BL/6J mouse assessed as increase in neutrophils at 100 mg/kg, sc preincubated with compound for 24 hrs followed by total body irradiation with 6.5 Gy and measured on day 7; type: functional, organism-based; settings: time 8.0 day
[20] = Clearance in ICR mouse at 100 mg/kg, iv measured upto 24 hrs by LC-MS/MS analysis; type: ADME, organism-based; settings: in vivo
[21] = MRT (0 to t) in ICR mouse at 100 mg/kg, iv measured upto 24 hrs by LC-MS/MS analysis; type: ADME, organism-based; settings: in vivo
Mus musculus [22] = assay: Radioprotective activity in C57BL/6J mouse assessed as increase in WBC count at 100 mg/kg, sc preincubated with compound for 24 hrs followed by total body irradiation with 6.5 Gy and measured after 30 days; type: functional, organism-based; settings: time 31.0 day
[23] = MRT (0 to infinity) in ICR mouse at 100 mg/kg, iv measured upto 24 hrs by LC-MS/MS analysis; type: ADME, organism-based; settings: ICR, in vivo
[24] = Half life in ICR mouse at 100 mg/kg, iv measured upto 24 hrs by LC-MS/MS analysis; type: ADME, organism-based; settings: in vivo
Mus musculus [25] = assay: Radioprotective activity in C57BL/6J mouse assessed as increase in RBC count at 100 mg/kg, sc preincubated with compound for 24 hrs followed by total body irradiation with 6.5 Gy and measured on day 14; type: functional, organism-based; settings: time 15.0 day
Mus musculus [26] = assay: Radioprotective activity in C57BL/6J mouse assessed as splenomegaly at 100 mg/kg, sc preincubated with compound for 24 hrs followed by total body irradiation with 6.5 Gy and measured after 10 days; type: functional, organism-based; settings: time 11.0 day
Mus musculus [27] = assay: Radioprotective activity in C57BL/6J mouse assessed as increase in number of LK cells at 100 mg/kg, sc preincubated with compound for 24 hrs followed by total body irradiation with 6.5 Gy and measured after 30 days; type: functional, organism-based; settings: time 31.0 day
Mus musculus [28] = assay: Radioprotective activity in C57BL/6J mouse assessed as survival rate at 100 mg/kg, sc preincubated with compound for 24 hrs followed by total body irradiation with 8.5 Gy and measured after 30 days by Kaplan-meier plot analysis; type: functional; settings: time 31 day
Mus musculus [29] = assay: Radioprotective activity in C57BL/6J mouse assessed as increase in ST-HSC number at 100 mg/kg, sc preincubated with compound for 24 hrs followed by total body irradiation with 6.5 Gy and measured after 30 days; type: functional, organism-based; settings: time 31.0 day
Mus musculus [30] = assay: Induction of G-CSF production in sc dosed C57BL/6J mouse model measured for 24 hrs by ELISA analysis; type: functional, organism-based; settings: dose 12.5-200 mg/kg
Mus musculus [31] = assay: Radioprotective activity in C57BL/6J mouse assessed as increase in percentage of LSK cells at 100 mg/kg, sc preincubated with compound for 24 hrs followed by total body irradiation with 6.5 Gy and measured after 30 days; type: functional, organism-based; settings: time 31.0 day
Mus musculus [32] = assay: Radioprotective activity in C57BL/6J mouse assessed as increase in percentage of LK cells at 100 mg/kg, sc preincubated with compound for 24 hrs followed by total body irradiation with 6.5 Gy and measured after 30 days; type: functional, organism-based; settings: time 31.0 day
Mus musculus [33] = assay: Induction of G-CSF production in C57BL/6J mouse model at 50 mg/kg, sc measured for 24 hrs by ELISA analysis; type: functional, organism-based
Mus musculus [34] = assay: Radioprotective activity in C57BL/6J mouse assessed as survival rate at 100 mg/kg, sc preincubated with compound for 24 hrs followed by total body irradiation with 9.5 Gy and measured after 30 days by Kaplan-meier plot analysis; type: functional; settings: light or radiation study, 744 h, time 31 day
Mus musculus [35] = assay: Radioprotective activity in C57BL/6J mouse assessed as effect on LT-HSC number at 100 mg/kg, sc preincubated with compound for 24 hrs followed by total body irradiation with 6.5 Gy and measured after 30 days; type: functional, organism-based; settings: time 31.0 day
Mus musculus [36] = assay: Radioprotective activity in C57BL/6J mouse assessed as fold increase in total number of splenic nucleated cells at 100 mg/kg, sc preincubated with compound for 24 hrs followed by total body irradiation with 6.5 Gy and measured after 10 days; type: functional; settings: time 11 day
Mus musculus [37] = assay: Radioprotective activity in C57BL/6J mouse assessed as effect on splenic LT-HSCs number at 100 mg/kg, sc preincubated with compound for 24 hrs followed by total body irradiation with 6.5 Gy and measured after 10 days; type: functional, organism-based; settings: time 11.0 day
Mus musculus [38] = assay: Induction of G-CSF production in C57BL/6J mouse model at 12.5 to 25 mg/kg, sc measured for 24 hrs by ELISA analysis; type: functional, organism-based; settings: dose 12.5-25 mg/kg
Mus musculus [39] = assay: Radioprotective activity in C57BL/6J mouse assessed as increase in MPP number at 100 mg/kg, sc preincubated with compound for 24 hrs followed by total body irradiation with 6.5 Gy and measured after 30 days; type: functional, organism-based; settings: time 31.0 day
Mus musculus [40] = assay: Induction of G-CSF production in C57BL/6J mouse model at 100 to 200 mg/kg, sc measured for 24 hrs by ELISA analysis; type: functional, organism-based; settings: dose 100-200 mg/kg

Structure (SMILES) | Cmax [1] [ng/mL] | Cmax [2] [ng/mL] | Tmax [3] [h] | Activity (Mus musculus [4]) | survival at 100 mg/kg (Mus musculus [5]) [%] | Tmax [7] [h] | Activity (Mus musculus [8]) | Activity (Mus musculus [9]) | MRT last at 24 h [10] [h] | Activity (Mus musculus [11]) | Activity (Mus musculus [12]) | Activity (Mus musculus [13]) | F [14] [%] | Activity (Mus musculus [15]) | Vd [16] [L/kg] | Activity (Mus musculus [18]) | Activity (Mus musculus [19]) | CL [20] [mL/min/kg] | MRT last at 24 h [21] [h] | Activity (Mus musculus [22]) | further results
CC(C)=CCC/C(C)=C/CC/C(C)=C/CC[C@]1(C)CCc2cc(OCCO)cc(C)c2O1 | 1.14 | 8.15 | 17.3 | Active | 70 | 0.67 | Active | Active | 12 | Active | Active | Active | 8.3 | Active | 0.351 | Active | Active | 6.3815 | 0.67 | Active | Activity (Mus musculus [6]): Active; Activity (Mus musculus [17]): Active; MRT inf [23]: 0.92 h; half-life [24]: 7.56 h; Activity (Mus musculus [25]): Active; Activity (Mus musculus [26]): Active; Activity (Mus musculus [27]): Active; Activity (Mus musculus [28]): 100%
CC(C)=CCC/C(C)=C/CC/C(C)=C/CC[C@]1(C)CCc2cc(O)cc(C)c2O1 [DELTA-TOCOTRIENOL] | 4.95 | 1.11 | 0.08 | Active | 70 | 12 | Active | Active | 13.9 | Active | Active | Active | 2.02 | Active | 0.437 | Active | Active | 4.4143 | 1.46 | Active | Activity (Mus musculus [29]): Active; Activity (Mus musculus [30]): Dose-dependent-effect; Activity (Mus musculus [31]): Active; Activity (Mus musculus [32]): Active; Activity (Mus musculus [33]): Active; survival at 100 mg/kg (Mus musculus [34]): 60%; Activity (Mus musculus [35]): inactive; fold change (FC) (Mus musculus [36]): ~2.5; MRT inf [23]: 1.63 h; Activity (Mus musculus [37]): Active; Activity (Mus musculus [38]): inactive; half-life [24]: 4.43 h; Activity (Mus musculus [25]): Active; Activity (Mus musculus [26]): Active; Activity (Mus musculus [39]): Active; Activity (Mus musculus [40]): Active
